According to US4156724A, “N-acylamino-alpha-arylacetamido cephalosporins and antibacterial compositions and methods containing them” (Sumitomo Chemical Company, Limited, priority 1974, dated 1979):
≈ marks a conversion by molar mass, not a printed value. Like-named read-outs stand apart in the source and are kept apart here.

Assays:
Assay type in all cases: cell-based
[1] = system: Staphylococcus aureus 209 P; assay: Minimum Inhibitory Concentration, Staphylococcus aureus 209 P; settings: Staphylococcus aureus 209 P; for MIC: read-out: Minimum Inhibitory Concentration
Protocol: (§1) anti-microbial activity tests were carried out on the compounds obtained in the Examples.

[2] = system: Staphylococcus aureus FS 289; assay: Minimum Inhibitory Concentration, Staphylococcus aureus FS 289
Protocol: as §1
*Staphylococcus aureus FS 289: strain resistant to penicillin

[3] = system: Escherichia coli NIHJ; assay: Minimum Inhibitory Concentration, Escherichia coli NIHJ; settings: Escherichia coli NIHJ; for MIC: read-out: Minimum Inhibitory Concentration
Protocol: as §1

[4] = system: Klebsiella pneumoniae 602; assay: Minimum Inhibitory Concentration, Klebsiella pneumoniae 602; settings: for MIC: Klebsiella pneumoniae, 602, Klebsiella pneumoniae 602, read-out: Minimum Inhibitory Concentration; for Minimum Inhibitory Concentration: Klebsiella pneumoniae 602
Protocol: as §1

[5] = system: Proteus vulgaris HX 19; assay: Minimum Inhibitory Concentration, Proteus vulgaris HX 19; settings: Proteus vulgaris HX 19; for MIC: HX19, read-out: Minimum Inhibitory Concentration
Protocol: as §1

[6] = system: Pseudomonas aeruginosa 104; assay: Minimum Inhibitory Concentration, Pseudomonas aeruginosa 104; settings: Pseudomonas aeruginosa 104; for MIC: read-out: Minimum Inhibitory Concentration
Protocol: as §1

[7] = system: Serratia No. 72; assay: Minimum Inhibitory Concentration, Serratia No. 72
Protocol: as §1

[8] = system: Enterobacter aerogeneus No. 75; assay: Minimum Inhibitory Concentration, Enterobacter aerogeneus No. 75; settings: Enterobacter aerogeneus No. 75; for MIC: read-out: Minimum Inhibitory Concentration
Protocol: as §1

[9] = FS289, Staphylococcus aureus FS 289, strain resistant to penicillin, read-out: Minimum Inhibitory Concentration
[10] = Staphylococcus aureus FS 289, strain resistant to penicillin

| MIC [1] [µg/mL] | MIC [2, 9] [µg/mL] | MIC [3] [µg/mL] | MIC [4] [µg/mL] | MIC [5] [µg/mL] | MIC [6] [µg/mL] | MIC [7] [µg/mL] | MIC [8] [µg/mL] | SMILES | Minimum Inhibitory Concentration [1] [µg/mL] | Minimum Inhibitory Concentration [2, 10] [µg/mL] | Minimum Inhibitory Concentration [3] [µg/mL] | Minimum Inhibitory Concentration [4] [µg/mL] | Minimum Inhibitory Concentration [5] [µg/mL] | Minimum Inhibitory Concentration [6] [µg/mL] | Minimum Inhibitory Concentration [7] [µg/mL] | Minimum Inhibitory Concentration [8] [µg/mL] | MIC ([2]; Staphylococcus aureus, FS289, read-out: Minimum Inhibitory Concentration) [µg/mL] |
| --- | --- | --- | --- | --- | --- | --- | --- | --- | --- | --- | --- | --- | --- | --- | --- | --- | --- |
| 0.78 (≈ 1.31 µM) | 6.25 (≈ 10.5 µM) | 12.5 (≈ 21.1 µM) | 12.5 (≈ 21.1 µM) | 0.78 (≈ 1.31 µM) | 12.5 (≈ 21.1 µM) | 100 (≈ 168 µM) | 25 (≈ 42.1 µM) | CC(=O)OCC1=C(C(=O)O)N2C(=O)C(NC(=O)[C@H](NC(=O)c3nnc4ccccc4c3O)c3ccc(O)cc3)C2SC1 (stereo partly drawn) [Example 124, 7-[D-α-(4-hydroxycinnoline-3-carbonamido)-α-p-hydrxyphenylacetamido]cephalosporanic acid] |  |  |  |  |  |  |  |  |  |
| 0.78 (≈ 1.16 µM) | 12.5 (≈ 18.6 µM) | 12.5 (≈ 18.6 µM) | 3.13 (≈ 4.65 µM) | 0.78 (≈ 1.16 µM) | 25 (≈ 37.1 µM) | 100 (≈ 148 µM) | 25 (≈ 37.1 µM) | NC(=O)Nc1cccc(C(NC(=O)c2ccnnc2O)C(=O)NC2C(=O)N3C(C(=O)O)=C(CSc4nnc(CO)s4)CSC23)c1 (stereo not drawn) [Example 48] |  |  |  |  |  |  |  |  |  |
| 0.78 (≈ 1.28 µM) | 6.25 (≈ 10.3 µM) | 6.25 (≈ 10.3 µM) | 3.13 (≈ 5.15 µM) | 0.78 (≈ 1.28 µM) | 6.25 (≈ 10.3 µM) | 100 (≈ 165 µM) | 12.5 (≈ 20.6 µM) | CC(=O)OCC1=C(C(=O)O)N2C(=O)C(NC(=O)[C@H](NC(=O)c3cnc4nc(C)ccc4c3O)c3ccc(O)cc3)C2SC1 (stereo partly drawn) [Example 123] |  |  |  |  |  |  |  |  |  |
| 0.78 (≈ 1.4 µM) | 6.25 (≈ 11.2 µM) | 25 (≈ 44.9 µM) | 25 (≈ 44.9 µM) | 0.39 (≈ 0.701 µM) | 12.5 (≈ 22.5 µM) | > 200 | 25 (≈ 44.9 µM) | CC(=O)OCC1=C(C(=O)O)N2C(=O)C(NC(=O)C(NC(=O)c3cnccc3O)c3ccc(CO)cc3)C2SC1 (racemic) [Example 88, 7-[DL-α-(4-Hydroxypyridine-3-carbonamido)-α-p-hydroxymethylphenylacetamido]cephalosporanic Acid] |  |  |  |  |  |  |  |  |  |
| 1.56 (≈ 2.16 µM) | 6.25 (≈ 8.67 µM) | 3.13 (≈ 4.34 µM) | 3.13 (≈ 4.34 µM) | 0.2 (≈ 0.277 µM) | 6.25 (≈ 8.67 µM) | 12.5 (≈ 17.3 µM) | 6.25 (≈ 8.67 µM) | Cc1nc2ncc(C(=O)NC(C(=O)NC3C(=O)N4C(C(=O)O)=C(CSc5nnnn5C)CSC34)c3cccc(NC(N)=O)c3)c(O)c2nc1C (stereo not drawn) [Example 42] |  |  |  |  |  |  |  |  |  |
|  |  |  |  |  |  |  |  | CC(=O)OCC1=C(C(=O)[O-])N2C(=O)C(NC(=O)C(NC(=O)c3ccnnc3O)c3ccc(NC(N)=O)cc3)C2SC1.[Na+] (stereo not drawn) [Example 4] | 0.39 | 6.25 | 6.25 | 6.25 | 0.2 | 25 | 100 | 50 |  |
| 1.56 (≈ 2.31 µM) | 6.25 (≈ 9.24 µM) | 3.13 (≈ 4.63 µM) | 1.56 (≈ 2.31 µM) | 0.2 (≈ 0.296 µM) | 3.13 (≈ 4.63 µM) | 12.5 (≈ 18.5 µM) | 3.13 (≈ 4.63 µM) | NC(=O)Nc1ccc([C@@H](NC(=O)c2cnc3cccnc3c2O)C(=O)N[C@@H]2C(=O)N3C(C(=O)O)=C(CSc4cnn[nH]4)CS[C@H]23)cc1 [Example 23] |  |  |  |  |  |  |  |  |  |
| 1.56 (≈ 2.4 µM) | 6.25 (≈ 9.6 µM) | 1.56 (≈ 2.4 µM) | 3.13 (≈ 4.81 µM) | 0.1 (≈ 0.154 µM) | 6.25 (≈ 9.6 µM) | 12.5 (≈ 19.2 µM) | 3.13 (≈ 4.81 µM) | Nc1cccc([C@@H](NC(=O)c2cnc3cccnc3c2O)C(=O)NC2C(=O)N3C(C(=O)O)=C(CSc4nncs4)CSC23)c1 (stereo partly drawn) [Example 64, 7-[D-α-(4-Hydroxy-1,5-naphthyridine-3-carbonamido)-α-m-aminophenylacetamido]-3-(1,3,4-thiadiazol-5-yl)thiomethyl-3-cephem-4-carboxylic acid] |  |  |  |  |  |  |  |  |  |
| 0.78 (≈ 1.15 µM) | 12.5 (≈ 18.4 µM) | 3.13 (≈ 4.6 µM) | 3.13 (≈ 4.6 µM) | 0.78 (≈ 1.15 µM) | 6.25 (≈ 9.18 µM) | 25 (≈ 36.7 µM) | 6.25 (≈ 9.18 µM) | COc1cnc2c(O)c(C(=O)NC(C(=O)NC3C(=O)N4C(C(=O)O)=C(CSc5nnnn5C)CSC34)c3ccc(O)cc3)cnc2n1 (stereo not drawn) [Example 172] |  |  |  |  |  |  |  |  |  |
| 0.39 (≈ 0.653 µM) | 6.25 (≈ 10.5 µM) | 6.25 (≈ 10.5 µM) | 6.25 (≈ 10.5 µM) | 0.1 (≈ 0.167 µM) | 6.25 (≈ 10.5 µM) | 50 (≈ 83.7 µM) | 12.5 (≈ 20.9 µM) | Cn1nnnc1SCC1=C(C(=O)O)N2C(=O)C(NC(=O)C(NC(=O)c3cnccc3O)c3cccc(N)c3)C2SC1 (stereo not drawn) [Example 57] |  |  |  |  |  |  |  |  |  |
|  |  |  |  |  |  |  |  | CC(=O)OCC1=C(C(=O)[O-])N2C(=O)C(NC(=O)C(NC(=O)c3cnc4nc(C)cnc4c3O)c3ccc(O)cc3)C2SC1.[Na+] (stereo not drawn) [Example 136] | 0.78 | 6.25 | 3.13 | 3.13 | 0.78 | 6.25 | 100 | 6.25 |  |

| SMILES | MIC [1] [µg/mL] | MIC [2, 9] [µg/mL] | MIC [3] [µg/mL] | MIC [4] [µg/mL] | MIC [5] [µg/mL] | MIC [6] [µg/mL] | MIC [7] [µg/mL] | MIC [8] [µg/mL] | Minimum Inhibitory Concentration [1] [µg/mL] | Minimum Inhibitory Concentration [2, 10] [µg/mL] | Minimum Inhibitory Concentration [3] [µg/mL] | Minimum Inhibitory Concentration [4] [µg/mL] | Minimum Inhibitory Concentration [5] [µg/mL] | Minimum Inhibitory Concentration [6] [µg/mL] | Minimum Inhibitory Concentration [7] [µg/mL] | Minimum Inhibitory Concentration [8] [µg/mL] | MIC ([2]; Staphylococcus aureus, FS289, read-out: Minimum Inhibitory Concentration) [µg/mL] |
| --- | --- | --- | --- | --- | --- | --- | --- | --- | --- | --- | --- | --- | --- | --- | --- | --- | --- |
| CN(C)c1ccc2ncc(C(=O)N[C@@H](C(=O)N[C@@H]3C(=O)N4C(C(=O)O)=C(CSc5cnn[nH]5)CS[C@H]34)c3ccc(NC(N)=O)cc3)c(O)c2n1 [Example 27] | 1.56 (≈ 2.17 µM) |  | 3.13 (≈ 4.35 µM) | 1.56 (≈ 2.17 µM) | 0.2 (≈ 0.278 µM) | 3.13 (≈ 4.35 µM) | 12.5 (≈ 17.4 µM) | 3.13 (≈ 4.35 µM) |  |  |  |  |  |  |  |  | 6.25 (≈ 8.68 µM) |
